Laboratory results: patent publication US6825201B2 (priority 2001, dated 2004)

Test system: HIV-1 single-round infectious reporter virus
Assay: microbe, parasite or virus in culture
Format: cell-based
Details: HeLa CD4 CCR5 cells, single-round HIV-1 reporter virus, MOI 0.01, luciferase read 72 hours after infection; read-out: EC50 Range
Experimental: Virus infection—Human epithelial cell line, HeLa, expressing the HIV-1 receptors CD4 and CCR5 was propagated in Dulbecco's Modified Eagle Medium (Life Technologies, Gaithersburg, Md.) containing 10% fetal Bovine serum (FBS, Sigma, St. Louis, Mo.) and supplemented with 0.2 mg/ml Geneticin (Life Technologies, Gaithersburg, Md.) and 0.4 mg/ml Zeocin (Invitrogen, Carlsbad, Calif.).
Transfections were performed using lipofectAMINE PLUS reagent as described by the manufacturer (Life Technologies, Gaithersburg, Md.).
1. Compound was added to HeLa CD4 CCR5 cells plated in 96 well plates at a cell density of 5×10^4 cells per well in 100 μl Dulbecco's Modified Eagle Medium containing 10% fetal Bovine serum at a concentration of <20 μM.
2. 100 μl of single-round infectious reporter virus in Dulbecco's Modified Eagle Medium was then added to the plated cells and compound at an approximate multiplicity of infection (MOI) of 0.01, resulting in a final volume of 200 μl per well and a final compound concentration of <10 μM.
3. Samples were harvested 72 hours after infection.
4. Viral infection was monitored by measuring luciferase expression from viral DNA in the infected cells using a luciferase reporter gene assay kit (Roche Molecular Biochemicals, Indianapolis, Ind.). Infected cell supernatants were removed and 50 μl of Dulbecco's Modified Eagle Medium (without phenol red) and 50 μl of luciferase assay reagent reconstituted as described by the manufacturer (Roche Molecular Biochemicals, Indianapolis, Ind.) was added per well. Luciferase activity was then quantified by measuring luminescence using a Wallac microbeta scintillation counter.
5. An EC50 provides a method for comparing the antiviral potency of the compounds of this invention. The effective concentration for fifty percent inhibition (EC50) was calculated with the Microsoft Excel Xlfit curve fitting software.

Compound	EC50 [nM]
N-(benzoyl)-N′-[(4-fluorol-indolin-3-yl)-acetyl]-piperazine [Example 21]	< 1000

Same assay, conditions: Human immunodeficiency virus 1, HeLa-CD4/CCR5, 72 h, read-out: EC50 Range

Compound	EC50 [nM]
COc1ccc2cc(C(=O)C(C#N)N3CCN(C(=O)c4ccccc4)CC3C)[nH]c2c1 (centres unmarked) [Example 2]	< 1000
COc1cccc2occ(C(=O)C(C#N)N3CCN(C(=O)c4ccccc4)CC3)c12 (centres unmarked) [Example 3]	< 1000
O=C(C(=O)N1CCN(C(=O)c2ccccc2)CC1)c1cc2ccccc2[nH]1 [Example 5, 1-(benzoyl)-4-[(indol-2-yl)-2-oxoacetyl]piperazine]	< 1000
COc1cccc2occ(C(=O)C(=O)N3CCN(C(=O)c4ccccc4)CC3)c12 [Example 6]	> 500
CC1CN(C(=O)c2ccccc2)CCN1C(=O)C(=O)c1cc2cc(F)ccc2[nH]1 (centres unmarked) [Example 8]	< 1000
CC1CN(C(=O)c2ccccc2)CCN1C(=O)C(=O)c1cc2cc(Cl)ccc2[nH]1 (centres unmarked) [Example 9]	< 1000
COc1c(C(=O)C(=O)N2CCN(C(=O)c3ccccc3)CC2)cnc2c1c(C)nn2C [Example 10]	1000 to 5000
COc1c(C(=O)C(=O)N2CCN(C(=O)c3ccccc3)CC2C)cnc2c1c(C)nn2C (centres unmarked) [Example 12]	1000 to 5000
CCCCNc1c(C(=O)C(=O)N2CCN(C(=O)c3ccccc3)CC2C)cnc2c1cnn2CC (centres unmarked) [Example 13]	< 1000
CCCCNc1c(C(=O)C(=O)N2CCN(C(=O)c3ccccc3)CC2)cnc2c1cnn2CC [Example 14]	> 5000
O=C(C(=O)N1CCN(C(=O)c2ccccc2)CC1)c1csc2ccccc12 [Example 18, 1-(benzoyl)-4-[(benzothiophen-3-yl)-2-oxoacetyl]piperazine]	1000 to 5000
O=C(C(=O)N1CCN(C(=O)c2ccccc2)CC1)c1cc2ccccc2s1 [Example 19, 1-(benzoyl)-4-[(benzothiophen-2-yl)-2-oxoacetyl]piperazine]	1000 to 5000
O=C(C(=O)N1CCN(C(=O)c2ccccc2)CC1)c1cccc2[nH]ccc12 [Example 22, 1-(4-benzoyl-piperazin-1-yl)-2-(1H-indol-4-yl)-ethane-1,2-dione]	< 1000
COc1ccc(-c2nc(C)n[nH]2)c2[nH]cc(C(=O)N3CCN(C(=O)c4ccccc4)CC3)c12 [Example 26]	1000 to 5000
COc1ccc(C#N)c2[nH]cc(C(=O)N3CCN(C(=O)c4ccccc4)CC3)c12 [Example 27]	> 500
COc1ccc(C#N)c2[nH]cc(C(=O)N3CCN(C(=O)c4ccccc4)C[C@H]3C)c12 [Example 28]	> 500
O=C(c1ccccc1)N1CCN(C(=O)c2c[nH]c3cccc(F)c23)CC1 [Example 29]	< 1000
CNC(=O)c1ccc(F)c2c(CC(=O)N3CCN(C(=O)c4ccccc4)CC3)c[nH]c12 [Example 31, 3-[2-(4-Benzoyl-piperazin-1-yl)-2-oxo-ethyl]-4-fluoro-1H-indole-7-carboxylic acid methylamide]	1000 to 5000
CNC(=O)c1ccc(F)c2c(C(O)C(=O)N3CCN(C(=O)c4ccccc4)CC3)c[nH]c12 (centres unmarked) [Example 32, 3-[2-(4-Benzoyl-piperazin-1-yl)-1-hydroxy-2-oxo-ethyl]-4-fluoro-1H-indole-7-carboxylic acid methylamide]	< 1000
